System: anti-CD28 scFv
Experiment: Phage binding ELISA (panning) of clonal phage on anti-CD28 scFv, with or without CD28 soluble protein
Conditions: clonal phage supernatant; for Backgroud signal: Phage binding ELISA, background wells; for Phage binding ELISA Backgroud signal: background signal
Method: Clonal phage were harvested as crude supernatants and screened via standard enzyme linked immunosorbent assays (ELISAs). […] Prior to the addition of clonal phage, wells were incubated with blocking buffer and CD28 soluble protein or blocking buffer alone. Without washing or aspirating, clonal phage supernatants were then added to the wells and incubated for a short time. Wells were then washed followed by detection of bound phage using a horse radish peroxidase conjugated anti-M13 antibody. Clonal phage of interest were then sent for sequence analysis.

Substance	Backgroud signal	Phage binding ELISA Backgroud signal
Phage-142 (MDWCPVILWDFCFN)	0.066	–
Phage-143 (LDWCPLNLWDLCYF)	0.062	–
Phage-144 (MDWCPRHLWYACFN)	0.061	–
Phage-145 (MDWCPKHLWIECFA)	0.065	–
Phage-146 (MDWCPRHLWSECFY)	0.136	–
Phage-147 (MHWCPRDLWVVCFN)	0.070	–
Phage-148 (MHWCPEYLWNECFA)	0.074	–
Phage-149 (MDWCPRDLWAVCFA)	0.070	–
Phage-150 (MDWCPRHLWNVCFS)	0.058	–
Phage-151 (MDFCPISLWHECFF)	0.081	–
Phage-152 (MDWCPKYLWDKCFH)	0.073	–
Phage-153 (MDWCPRHLWDLCFF)	0.093	–
Phage-154 (MDWCPRDLWNVCFA)	0.114	–
Phage-155 (MHWCPLHLWNECYH)	0.063	–
Phage-156 (MDWCPKHLWHQCFH)	0.058	–
Phage-157 (MDWCPRSLWSYCFH)	0.066	–
Phage-158 (MDWCPRYLWTECFF)	0.110	–
Phage-159 (MAWCPMNLWDQCFF)	–	0.070
Phage-160 (MHWCPRALWHECFN)	–	0.070
Phage-161 (MDWCPRHLWDQCFA)	–	0.150
Phage-162 (MNWCPTDLWHECFN)	–	0.087

Substance	Backgroud signal	Phage binding ELISA Backgroud signal
Phage-163 (MFWCPRYLWHECFN)	–	0.086
Phage-164 (MDWCPKFLWDLCFA)	–	0.100
Phage-165 (MDWCPFYLWDECFL)	–	0.070
Phage-166 (MDWCPRHLWDLCFA)	–	0.061
Phage-167 (MSWCPQDLWHVCFN)	–	0.095
Phage-168 (MDWCPKDLWHECFN)	–	0.073
Phage-169 (MDWCPRDLWNVCFN)	–	0.100
Phage-170 (MNWCPSDLWHLCFN)	–	0.071
Phage-171 (MNWCPSHLWHMCYF)	–	0.195
Phage-172 (MDWCPPYLWYECFA)	–	0.068
Phage-173 (MDWCPMNLWSECFN)	–	0.168
Phage-174 (MDWCPKHLWNECFN)	–	0.063
Phage-175 (MDWCPAYLWAECFS)	–	0.082
Phage-176 (MDWCPSDLWHECFH)	–	0.075
Phage-177 (MDWCPVSLWDHCFN)	–	0.075
Phage-178 (LDWCPRDLWHVCFF)	–	0.176
Phage-179 (MDWCPWILWNECFN)	–	0.141
Phage-180 (MHWCPRYLWDECFN)	–	0.132
Phage-181 (MYWCPRDLWDVCFN)	–	0.145
Phage-182 (MHWCPRSLWNECYF)	–	0.168
Phage-183 (IDWCPRDLWALCFN)	–	0.127

Substance	Backgroud signal	Phage binding ELISA Backgroud signal
Phage-184 (MHWCPINLWNECFS)	–	0.081
Phage-185 (MERCPRFLWNECFN)	–	0.132
Phage-186 (QDWCPTYLWHHCFN)	–	0.101
Phage-187 (IGKLTLCLNADLVI)	–	0.274
Phage-188 (MDWCPSYLWDQCFF)	–	0.100
Phage-189 (VDWCPRYLWHVCYN)	–	0.064
Phage-190 (MDWCPRDMWAECFF)	–	0.099
Phage-191 (MDWCPRDMWYECFN)	–	0.099
Phage-192 (DVWCPKYMWSLCFN)	–	0.101
Phage-193 (MDWCPMDMWVNCFN)	–	0.059
Phage-194 (MDWCPSDMWHECYA)	–	0.062
Phage-195 (MDWCPKHMWFMCFN)	–	0.101
Phage-196 (MDWCPRYMWYQCFS)	–	0.079
Phage-197 (MDWCPRHMWYECFF)	–	0.129
Phage-198 (MDWCPRAMWNHCFN)	–	0.321
Phage-199 (MDWCPRNMWAQCFA)	–	0.102
Phage-200 (MFWCPFDMWHFCFN)	–	0.150
Phage-201 (MDWCPRDMWDQCFD)	–	0.072
Phage-202 (MFWCPMDMWDQCFN)	–	0.091
Phage-203 (MSWCPRDMWFYCYA)	–	0.065

Reference: US20230357447A1, “TUMOR ACTIVATED MULTISPECIFIC ANTIBODIES FOR TARGETING CD28 AND PD-L1 AND METHODS OF USE THEREOF” (Janux Therapeutics, Inc., priority 2022, published 2023)
